Results on 2 compounds are retold here after US10583096B2, “Use of cannabinoids in the treatment of epilepsy” (GW Research Limited, priority 2016, dated 2020).

Data set [1] relates to subjects with SWS brain involvement and refractory epilepsy. Briefly: Expanded access compassionate use program of CBD in Sturge Weber syndrome: seizure frequency and quality of life. The class given is in vivo, human. As to conditions: for Week 14 (number of seizures): CBD target dose 15-25 mg/kg/day; for Decrease in seizure frequency (%): week 14 versus baseline. On the procedure: “Percentage decrease in seizure frequency” is defined as the number of seizures at week 14 minus the number of seizures at baseline divided by the number of seizures at baseline multiplied by 100.
Four subjects with SWS brain involvement and refractory epilepsy were enrolled in an expanded access compassionate use program for CBD. These subjects were treated with a highly purified extract of cannabidiol (CBD) obtained from a cannabis plant. Frequency of seizures was recorded at each visit, as were reported quality of life changes, including mood, behaviour, and cognitive function.
Data were compared in the 56-day pre-treatment period, the 56-day period after starting maintenance dose (Week 14), and at most recent visit.
The participants in the study were taking at the time of entry into the study between one and four concomitant AEDs.
Patient 1 was taking leviteracetam alone. Patient 2 was taking leviteracetam, valproate, felbamate and clobazam. Patient 3 was taking valproate and topiramate. Patient 4 was taking oxycarbamazepine and lacosamide.
CBD was administered at a target dose of 15-25 mg/kg/day.
All patients entered a baseline period of 14 weeks when parents/caregivers kept prospective seizure diaries, noting all countable seizure types.
Laboratory testing for hematologic, liver, kidney function and concomitant AED levels was performed at baseline, and after every 4 weeks of CBD therapy.

The next data set concerns mice. The settings on record: after administration of pro-convulsant drugs or an electric current; cited from earlier work.
Data set [2] concerns adult patients with secondary generalized epilepsy. The settings on record: of eight adult patients with secondary generalized epilepsy; cited from earlier work.
The next data set concerns adult patients. As to conditions: 200 mg/day of pure CBD, four adult patients; cited from earlier work.
Data set [3] has as its system institutionalized adult patients. The settings on record: 200 mg/day of pure CBD, twelve institutionalized adult patients, open label; cited from earlier work.
A further data set relates to Dravet syndrome. The settings on record: treatment of Dravet syndrome, announced March 2016; cited from earlier work.
The subject of data set [4] is multiple species and models. As to conditions: previous studies in animals; cited from earlier work.
For data set [5] the following is noted: in vivo; cited from earlier work.

Consider `C=C(C)[C@@H]1CCC(C)=C[C@H]1c1c(O)cc(CCCCC)cc1O` [CBD, Cannabidiol], for which the “Week 14 (number of seizures)” value in data set [1] (Patient 1, concomitant leviteracetam alone, baseline 67 seizures) is on record as 60 number of seizures; in data set [1] (Patient 2, concomitant leviteracetam, valproate, felbamate and clobazam, baseline 6 seizures) it was 1 number of seizures; in data set [1] (Patient 3, concomitant valproate and topiramate, baseline 10 seizures), 1 number of seizures; in data set [1] (Patient 4, concomitant oxycarbamazepine and lacosamide, baseline 6 seizures), 4 number of seizures. For the same compound, the “Decrease in seizure frequency (%)” value stood at 10% in data set [1] (Patient 1, concomitant leviteracetam alone); 83% in data set [1] (Patient 2, concomitant leviteracetam, valproate, felbamate and clobazam); 90% in data set [1] (Patient 3, concomitant valproate and topiramate); 33% in data set [1] (Patient 4, concomitant oxycarbamazepine and lacosamide). The “effectiveness in the treatment of SWS” value in data set [1] (conclusion from the four patients) was “effective”. Moreover, the “reported quality of life” value is “remained unchanged” in data set [1] (patient 1); “improved quality of life” in data set [1] (three of the four patients (patients 2, 3 and 4)). Besides, the cognitive function result in data set [1] (three subjects (patients 2, 3 and 4)) is “improvements in cognitive function”. Moreover, the “share of patients who benefited from a reduction in the number of seizures” value in data set [1] (treatment-resistant SWS patients, four subjects) is “three quarters”. For the same compound, in data set [1] (two subjects (patient 2 and 3)), the mood and behaviour result was “improvements in mood and behaviour”. For the same compound, in the data set on mice, the prevention of seizures entry is given as “able to prevent seizures”. In addition, the “number of patients with a marked reduction of seizures” value in data set [2] is 4. In the data set on adult patients, the “patients who became seizure free” value is listed as “two of the four patients”. Moreover, the “seizure frequency in the remainder of the patients” value with adult patients was “unchanged”. Also, in data set [3], the control of seizures result is on record as “ineffective”. In addition, in the data set with Dravet syndrome, the “outcome of the Phase 3 study” value is listed as “positive results”. In data set [4], the anticonvulsant efficacy entry is “anticonvulsant efficacy in multiple species and models”.

Take `CCCCCc1cc(O)c2c(c1)OC(C)(C)[C@@H]1CCC(C)=C[C@@H]21` [THC, Tetrahydrocannabinol]: the effect on convulsions entry in data set [5] is given as “pro-convulsant”.
